The values that follow come from patent publication US20220380374A1, “1,4-DIHYDROBENZO[D]PYRAZOLO[3,4-F][1,3]DIAZEPINE DERIVATIVES AND RELATED COMPOUNDS AS LRRK2, NUAK1 AND/OR TYK2 KINASE MODULATORS FOR THE TREATMENT OF E.G. AUTOIMMUNE DISEASE” (Origenis GMBH, priority 2019, published 2022).

The target of test [1] is T1, wt human TYK2, catalytic site (Homo sapiens, UniProt P29597).
T1 construct: 2 nM wt human TYK2, catalytic site (SignalChem/CAN); purchased SignalChem/CAN
T1 sequence (P29597 897-1176 limits assumed): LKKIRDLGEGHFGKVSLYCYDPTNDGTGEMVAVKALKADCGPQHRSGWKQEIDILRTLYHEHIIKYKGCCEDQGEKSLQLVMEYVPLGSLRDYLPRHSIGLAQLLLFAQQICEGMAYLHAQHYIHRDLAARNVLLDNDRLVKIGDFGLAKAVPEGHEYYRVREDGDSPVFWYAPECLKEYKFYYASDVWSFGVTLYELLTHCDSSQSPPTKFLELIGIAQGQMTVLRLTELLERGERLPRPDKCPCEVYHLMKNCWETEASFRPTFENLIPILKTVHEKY
The experiment in a line: HTRF KinEASE assay, TYK2. The format is biochemical. The following applies: 1 μM ATP; read-out: IC50, inhibitory activity toward TYK2. A digest of the protocol: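 2 nM wt human TYK2 catalytic domain with 1 μM biotinylated TK substrate and 1 μM ATP in 1× kinase buffer was incubated ≥30 min at room temperature. Antibody and streptavidin-XL665 were added, and HTRF emission ratios were read after 60 min.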

Test [2] concerns the target T2, wt human NUAK1, full length (Homo sapiens, UniProt O60285).
T2 construct: 8 nM wt human NUAK1, full length (ThermoFisher/USA); purchased ThermoFisher/USA
T2 sequence (O60285 1-661): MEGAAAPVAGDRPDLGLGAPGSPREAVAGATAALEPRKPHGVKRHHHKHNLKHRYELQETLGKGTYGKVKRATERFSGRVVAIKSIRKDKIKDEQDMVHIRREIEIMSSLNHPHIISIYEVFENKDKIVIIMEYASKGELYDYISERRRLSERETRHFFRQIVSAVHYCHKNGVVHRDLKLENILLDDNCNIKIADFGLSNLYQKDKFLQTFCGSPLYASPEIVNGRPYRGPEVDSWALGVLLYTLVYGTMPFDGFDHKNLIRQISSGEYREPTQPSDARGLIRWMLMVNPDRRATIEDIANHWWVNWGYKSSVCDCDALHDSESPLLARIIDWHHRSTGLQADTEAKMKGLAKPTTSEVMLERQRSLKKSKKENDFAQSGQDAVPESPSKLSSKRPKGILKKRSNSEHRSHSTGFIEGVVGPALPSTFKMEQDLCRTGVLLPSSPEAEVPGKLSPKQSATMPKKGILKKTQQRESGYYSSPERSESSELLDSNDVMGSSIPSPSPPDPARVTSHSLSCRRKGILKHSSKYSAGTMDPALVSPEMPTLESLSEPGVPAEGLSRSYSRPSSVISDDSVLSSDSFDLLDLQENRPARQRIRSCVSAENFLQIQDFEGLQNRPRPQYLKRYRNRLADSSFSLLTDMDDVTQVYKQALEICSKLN
The test is described as follows: TR-FRET LanthaScreen Eu Kinase Binding Assay, NUAK1. The following applies: 5 nM Kinase Tracer 236; read-out: IC50, inhibitory activity toward NUAK1. A digest of the protocol: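 TR-FRET tracer-displacement binding with 8 nM full-length wild-type human NUAK1, 2 nM Eu-anti-His antibody and 5 nM Kinase Tracer 236 in 1× Kinase Buffer A (final). Compound, kinase/antibody and tracer incubated 1 h at room temperature; emission ratios analysed per kit protocol.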

Where only a bound is given, the exact number is not on record here.

In the case of `CCc1cc(F)c2c(c1)-c1[nH]nc(Cl)c1NC(c1c(F)cccc1F)=N2` [Compound 168, 3-chloro-5-(2,6-difluorophenyl)-9-ethyl-7-fluoro-1,4-dihydrobenzo[d]pyrazolo[3,4-f][1,3]diazepine], the IC50 in test [1] lay within 100 to 1000 nM; in test [2] it was 10 to 100 nM.
Consider `COc1ccc2c(c1F)N=C(c1c(F)cccc1F)Nc1cn[nH]c1-2` [Compound 169, 5-(2,6-difluorophenyl)-7-fluoro-8-methoxy-1,4-dihydrobenzo[d]pyrazolo[3,4-f][1,3]diazepine], for which the IC50 in test [1] and in test [2] was 10 to 100 nM each time.
As for `Fc1cccc(F)c1C1=Nc2c(Cl)n[nH]c2-c2cc(Cl)ncc2N1` [Compound 171, 3,9-dichloro-5-(2,6-difluorophenyl)-1,6-dihydropyrazolo[4,3-d]pyrido[4,3-f][1,3]diazepine], the IC50 in test [1] and in test [2] was 10 to 100 nM each time.
On to `Cc1ccc2c(c1)-c1[nH]ncc1N=C(c1c(C)cccc1F)N2` [Compound 172, 5-(2-fluoro-6-methylphenyl)-9-methyl-1,6-dihydrobenzo[d]pyrazolo[3,4-f][1,3]diazepine], for which the IC50 in test [1] and in test [2] was 100 to 1000 nM in each case.
As for `Cc1ccc2c(c1)-c1[nH]ncc1NC(c1c(F)ccc(F)c1F)=N2` [Compound 182, 9-methyl-5-(2,3,6-trifluorophenyl)-1,4-dihydrobenzo[d]pyrazolo [3,4-f][1,3]diazepine], the half-inhibitory concentration (IC50) in test [1] was in the range of 100 to 1000 nM; in test [2] it was 10 to 100 nM.
For the compound `Cc1ccc2c(c1)-c1[nH]ncc1NC(c1c(F)ccc(Br)c1Cl)=N2` [Compound 183, 5-(3-bromo-2-chloro-6-fluorophenyl)-9-methyl-1,4-dihydrobenzo [d]pyrazolo[3,4-f][1,3]diazepine], the IC50 was in the range of 100 to 1000 nM in test [1] and 10 to 100 nM in test [2].
With `Cc1ccc2c(c1)-c1[nH]ncc1NC(c1c(Cl)ccc(Br)c1F)=N2` [Compound 184, 5-(3-bromo-6-chloro-2-fluorophenyl)-9-methyl-1,4-dihydrobenzo [d]pyrazolo[3,4-f][1,3]diazepine], the IC50 in test [1] was in the range of 100 to 1000 nM; in test [2], 10 to 100 nM.
For the compound `Cc1ccc2c(c1)-c1[nH]ncc1NC(c1c(Cl)ccc(F)c1F)=N2` [Compound 186, 5-(6-chloro-2,3-difluorophenyl)-9-methyl-1,4-dihydrobenzo[d]pyrazolo[3,4-f][1,3]diazepine], the IC50 in test [1] lay in the range of 100 to 1000 nM; in test [2], 10 to 100 nM.
With `Fc1cccc(Cl)c1C1=Nc2cnc(Cl)cc2-c2n[nH]cc2N1` [Compound 190, 9-chloro-5-(2-chloro-6-fluorophenyl)-2,4-dihydropyrazolo[4,3-d]pyrido[4,3-f][1,3]diazepine], the IC50 in test [1] and in test [2] was 10 to 100 nM each time.
In the case of `Fc1cc(F)c(C2=Nc3ccc(Cl)cc3-c3n[nH]cc3N2)c(F)c1` [Compound 194, 9-chloro-5-(2,4,6-trifluorophenyl)-2,4-dihydrobenzo[d]pyrazolo[3,4-f][1,3]diazepine], the IC50 in test [1] was 100 to 1000 nM; in test [2], 10 to 100 nM.
On to `Fc1cccc(F)c1C1=Nc2cnc(OC(F)F)cc2-c2n[nH]cc2N1` [Compound 197, 9-(difluoromethoxy)-5-(2,6-difluorophenyl)-2,4-dihydropyrazolo[4,3-d]pyrido[4,3-f][1,3]diazepine], for which the IC50 in test [1] and in test [2] was 10 to 100 nM each time.
In the case of `O=C(O)c1cc2c(cc1Cl)-c1[nH]ncc1N=C(c1c(F)cccc1F)N2` [Compound 198, 9-chloro-5-(2,6-difluorophenyl)-1,6-dihydrobenzo[d]pyrazolo[3,4-f][1,3]diazepine-8-carboxylic acid], the half-maximal inhibitory concentration (IC50) in test [1] is 10 to 100 nM; in test [2] it was 100 to 1000 nM.
For `CCNC(=O)c1cc2c(cc1Cl)-c1n[nH]cc1N=C(c1c(F)cccc1F)N2` [Compound 200, 9-chloro-5-(2,6-difluorophenyl)-N-ethyl-2,6-dihydrobenzo[d]pyrazolo[3,4-f][1,3]diazepine-8-carboxamide], in that order: 10 to 100 nM and 10 to 100 nM.
For `CC(C)(C)NC(=O)c1cc2c(cc1Cl)-c1n[nH]cc1N=C(c1c(F)cccc1F)N2` [Compound 201, N-(tert-butyl)-9-chloro-5-(2,6-difluorophenyl)-2,6-dihydrobenzo[d]pyrazolo[3,4-f][1,3]diazepine-8-carboxamide], in that order: 10 to 100 nM and 100 to 1000 nM.
For `O=C(NCC(F)(F)F)c1cc2c(cc1Cl)-c1n[nH]cc1N=C(c1c(F)cccc1F)N2` [Compound 202, 9-chloro-5-(2,6-difluorophenyl)-N-(2,2,2-trifluoroethyl)-2,6-dihydrobenzo[d]pyrazolo[3,4-f][1,3]diazepine-8-carboxamide], in that order: 10 to 100 nM and 10 to 100 nM.
Turning to `Fc1cc(F)c(C2=Nc3cn[nH]c3-c3cc(F)ccc3N2)c(F)c1` [Compound 203, 9-fluoro-5-(2,4,6-trifluorophenyl)-1,6-dihydrobenzo[d]pyrazolo[3,4-f][1,3]diazepine], the IC50 in test [1] is 100 to 1000 nM; in test [2], 10 to 100 nM.
Take `Fc1cccc(F)c1C1=Nc2cn[nH]c2-c2cc3c(cc2N1)OCO3` [Compound 210, 5-(2,6-difluorophenyl)-1,6-dihydro-[1,3]dioxolo[4′,5′:4,5]benzo[1,2-d]pyrazolo[3,4-f][1,3]diazepine]: the IC50 in test [1] and in test [2] was 10 to 100 nM each time.
On to `CCNC(=O)c1cc2c(cc1F)-c1n[nH]cc1N=C(c1c(F)cccc1F)N2` [Compound 211, 5-(2,6-difluorophenyl)-N-ethyl-9-fluoro-2,6-dihydrobenzo[d]pyrazolo[3,4-f][1,3]diazepine-8-carboxamide], for which the IC50 in test [1] and in test [2] was 10 to 100 nM throughout.
As to `Fc1ccc2c(c1)-c1n[nH]cc1NC(c1c(F)cc(OC(F)(F)F)cc1F)=N2` [Compound 214, 5-(2,6-difluoro-4-(trifluoromethoxy)phenyl)-9-fluoro-2,4-dihydrobenzo[d]pyrazolo[3,4-f][1,3]diazepine], the IC50 in test [1] and in test [2] was 100 to 1000 nM throughout.
Consider `Fc1ccc2c(c1)-c1[nH]ncc1N=C(c1c(F)cc(OC(F)F)cc1F)N2` [Compound 215, 5-(4-(difluoromethoxy)-2,6-difluorophenyl)-9-fluoro-1,6-dihydrobenzo[d]pyrazolo[3,4-f][1,3]diazepine], for which the 50% inhibitory concentration (IC50) lay within 100 to 1000 nM in test [1] and 10 to 100 nM in test [2].
The corresponding values for `O=C(NCCF)c1cc2c(cc1F)-c1n[nH]cc1N=C(c1c(F)cccc1F)N2` [Compound 216, 5-(2,6-difluorophenyl)-9-fluoro-N-(2-fluoroethyl)-2,6-dihydrobenzo[d]pyrazolo[3,4-f][1,3]diazepine-8-carboxamide] are 10 to 100 nM and 10 to 100 nM.
For `Cc1ccc2c(c1)-c1n[nH]cc1NC(c1c(F)ccc(C(F)(F)F)c1F)=N2` [Compound 217, 5-(2,6-difluoro-3-(trifluoromethyl)phenyl)-9-methyl-2,4-dihydrobenzo[d]pyrazolo[3,4-f][1,3]diazepine], the half-inhibitory concentration (IC50) in test [1] and in test [2] was 100 to 1000 nM each time.
For the compound `Nc1ncc2c(n1)N=C(c1c(F)cccc1F)Nc1c[nH]nc1-2` [Compound 218, 5-(2,6-difluorophenyl)-2,4-dihydropyrazolo[4,3-d]pyrimido[5,4-f][1,3]diazepin-8-amine], the IC50 in test [1] and in test [2] was 10 to 100 nM throughout.
In the case of `CN1CCN(c2ncc3c(n2)N=C(c2c(F)cccc2F)Nc2c[nH]nc2-3)CC1` [Compound 219], the values for the IC50 in test [1] and in test [2] were 10 to 100 nM and 100 to 1000 nM, respectively.
Consider `Fc1cc2c(cc1OC1CCOCC1)N=C(c1c(F)cccc1F)Nc1c[nH]nc1-2` [Compound 220, 5-(2,6-difluorophenyl)-9-fluoro-8-((tetrahydro-2H-pyran-4-yl)oxy)-2,4-dihydrobenzo[d]pyrazolo[3,4-f][1,3]diazepine], for which the 50% inhibitory concentration (IC50) in test [1] lay in the range of 10 to 100 nM; in test [2], 100 to 1000 nM.
In the case of `Fc1cc2c(cc1OC1CCOCC1)N=C(c1c(F)cccc1Cl)Nc1c[nH]nc1-2` [Compound 221, 5-(2-chloro-6-fluorophenyl)-9-fluoro-8-((tetrahydro-2H-pyran-4-yl)oxy)-2,4-dihydrobenzo[d]pyrazolo[3,4-f][1,3]diazepine], the values for the IC50 in test [1] and in test [2] were under 10 nM and 100 to 1000 nM, respectively.
